Experimental data taken from patent US11958860B2, “Crystal form of compound, and preparation method therefor and use thereof” (JIANGSU KANION PHARMACEUTICAL CO., LTD., priority 2021, dated 2024).

Columns and labels:
Type in all cases: physicochemical
[1] = Transformation experiment between crystal forms (heating); conditions: heating temperature 120 °C, heating time 40 min
Text: Four crystal forms, such as Form A, Form B, Form C, and Form D, are experienced for mutual transformation experiment. Experimental conditions and results are as follows: […]

[2] = Percentage of solvent or water in crystal form
Text: Thermo gravimetric analysis (TGA for short) is an analysis technique to determine the change of mass of substances with temperature under conditions of programmed temperature control. […] Thus, such thermo gravimetric analysis is suitable for detecting the loss of crystallization solvents or crystallization water molecules in crystalline substances or the process and magnitude of sublimation and decomposition of the sample, and can also effectively distinguish whether the substances contain the crystallization solvents or the crystallization water molecules.
In the present invention, test parameters of the TGA are as follows: device model: Netzsch TG 209F3; temperature range: 30-400° C.; scanning rate: 10 k/min; purge gas: 25 ml/min; and protective gas: 15 mL/min.

[3] = Dynamic vapor sorption (DVS) hygroscopicity test; conditions: for water loss percentage / water absorption percentage: 25 °C
Text: Dynamic vapor sorption (DVS) test/hygroscopicity test is to quickly determine the increase and loss of sample moisture caused by a flowing carrier gas with a set relative humidity (RH). The sample is placed on a high-sensitivity and high-stability digital micro-balancer in a self-suspension state, and then the sorption/desorption of water vapor is detected by determining the increase/decrease of material mass, so as to determine the hygroscopicity of the sample.
In the present invention, test parameters of the DVS are as follows: device model: SMS DVS Intrinsic; 0-95% RH; temperature: 25° C.
A dynamic vapor sorption (DVS) device is used to investigate the moisture sorption and desorption of samples at a temperature of 25° C. and a relative humidity of 0-95%, so as to determine the hygroscopic sorption properties of different crystal forms.

[4] = Comparison of crystal form stability (equilibrated suspension); conditions: conclusion from the crystal transformation results (Tables 2 and 3)
Method: 5 mg of each sample is taken and mixed with 1 ml of a solvent at 25° C. Experimental conditions and results are as follows: […]

Row | Compound | Crystal form of product [1] | Percentage of solvent or water [2] [%] | water loss percentage ([3]; RH 65%) | water loss percentage ([3]; RH 80%) | water absorption percentage ([3]; RH 65%) | water absorption percentage ([3]; RH 80%) | change in hygroscopicity and weight (DVS) ([3]; relative humidity of 0-95%, FIG. 5) | relative stability of crystal forms [4]
1 | COc1cc2c(cc1OC)CN1CCc3cc4c(cc3C1C2)OCO4 (single isomer, unassigned) [Form B, S-(−)-2,3-methylenedioxy-5,8,13,13a-tetrahydro-10,11-dimethoxy-6H-dibenzo[a, g]quinolizine] | Form A | 10.8 | percentage (0.2%) | percentage (0.3%) |  |  |  | 
2 | COc1cc2c(cc1OC)CN1CCc3cc4c(cc3C1C2)OCO4 (single isomer, unassigned) [Form C, S-(−)-2,3-methylenedioxy-5,8,13,13a-tetrahydro-10,11-dimethoxy-6H-dibenzo[a, g]quinolizine] | Form A | 4.4 |  |  | percentage (0.5%) | percentage (1.2%) |  | 
3 | COc1cc2c(cc1OC)CN1CCc3cc4c(cc3C1C2)OCO4 (single isomer, unassigned) [Form D, S-(−)-2,3-methylenedioxy-5,8,13,13a-tetrahydro-10,11-dimethoxy-6H-dibenzo[a, g]quinolizine] | Form A | 0.0 |  |  | percentage (0.2%) | percentage (0.3%) |  | 
4 | COc1cc2c(cc1OC)CN1CCc3cc4c(cc3[C@@H]1C2)OCO4 [Form A, S-(−)-2,3-methylenedioxy-5,8,13,13a-tetrahydro-10,11-dimethoxy-6H-dibenzo[a, g]quinolizine] | Form A | 0.0 |  |  | percentage (0.1%) | percentage (0.2%) | approximately 0.6% | most stable crystal form
